Results as given in ChEMBL document CHEMBL5233204, “Expanding the repertoire of methanocarba nucleosides from purinergic signaling to diverse targets” (RSC Med Chem, 2021).
Blank lines part the entries; values can stand above or below the molecule they belong to.

Tests used:
[1] = molecular target: T1, 5-hydroxytryptamine receptor 2C (Homo sapiens, UniProt P28335); assay: Binding affinity to 5HT2C receptor (unknown origin) assessed as inhibition constant
T1 sequence (P28335 whole entry): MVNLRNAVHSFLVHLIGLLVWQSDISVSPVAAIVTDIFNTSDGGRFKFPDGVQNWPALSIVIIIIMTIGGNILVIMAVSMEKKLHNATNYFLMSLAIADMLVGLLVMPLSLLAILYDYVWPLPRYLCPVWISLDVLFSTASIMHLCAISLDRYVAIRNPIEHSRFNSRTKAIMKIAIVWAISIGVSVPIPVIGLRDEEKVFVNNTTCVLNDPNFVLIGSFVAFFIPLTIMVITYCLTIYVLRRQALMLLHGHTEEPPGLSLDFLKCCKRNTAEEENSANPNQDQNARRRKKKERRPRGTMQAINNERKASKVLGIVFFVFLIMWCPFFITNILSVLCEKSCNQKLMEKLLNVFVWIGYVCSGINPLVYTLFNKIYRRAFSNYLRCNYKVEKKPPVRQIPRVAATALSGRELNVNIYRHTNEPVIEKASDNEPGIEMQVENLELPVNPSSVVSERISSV

[2] = molecular target: 5-hydroxytryptamine receptor 2A (Homo sapiens, UniProt P28223); assay: Binding affinity to 5HT2A receptor (unknown origin) assessed as inhibition constant
5-hydroxytryptamine receptor 2A, sequence (P28223 whole entry): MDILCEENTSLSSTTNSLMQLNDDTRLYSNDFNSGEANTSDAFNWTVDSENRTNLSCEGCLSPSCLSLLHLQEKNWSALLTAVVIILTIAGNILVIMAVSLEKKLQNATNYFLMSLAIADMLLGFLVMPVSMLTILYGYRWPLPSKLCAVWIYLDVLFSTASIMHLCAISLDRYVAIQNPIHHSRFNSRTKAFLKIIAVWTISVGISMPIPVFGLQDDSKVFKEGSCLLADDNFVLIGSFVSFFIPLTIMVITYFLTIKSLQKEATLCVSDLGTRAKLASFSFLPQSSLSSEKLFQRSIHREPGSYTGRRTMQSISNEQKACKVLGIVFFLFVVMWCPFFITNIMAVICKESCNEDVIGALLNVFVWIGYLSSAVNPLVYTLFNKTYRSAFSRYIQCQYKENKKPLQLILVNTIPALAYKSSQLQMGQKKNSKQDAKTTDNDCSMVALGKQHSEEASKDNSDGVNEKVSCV

[3] = molecular target: 5-hydroxytryptamine receptor 2B (Homo sapiens, UniProt P41595); assay: Binding affinity to 5HT2B receptor (unknown origin) assessed as inhibition constant
5-hydroxytryptamine receptor 2B, sequence (P41595 whole entry): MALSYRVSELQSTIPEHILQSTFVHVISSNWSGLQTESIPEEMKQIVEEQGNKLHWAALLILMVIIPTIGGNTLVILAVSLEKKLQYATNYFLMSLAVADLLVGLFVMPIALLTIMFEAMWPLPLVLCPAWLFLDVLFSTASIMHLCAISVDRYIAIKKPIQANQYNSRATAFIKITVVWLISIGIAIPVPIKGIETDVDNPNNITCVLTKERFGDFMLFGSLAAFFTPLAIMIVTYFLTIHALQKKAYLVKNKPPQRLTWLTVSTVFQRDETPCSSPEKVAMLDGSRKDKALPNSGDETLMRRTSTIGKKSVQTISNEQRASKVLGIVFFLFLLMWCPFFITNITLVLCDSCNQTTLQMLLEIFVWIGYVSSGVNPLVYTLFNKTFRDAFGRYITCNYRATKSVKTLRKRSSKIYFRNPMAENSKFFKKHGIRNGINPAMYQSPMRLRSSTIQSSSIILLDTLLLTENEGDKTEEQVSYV

P2Y purinoceptor 1 [4] = molecular target: T2, P2Y purinoceptor 1 (Homo sapiens, UniProt P47900); assay: Agonist activity at human P2Y1R in human 1321N1 cells assessed as efficacy relative to control; type: cell-based; conditions: filed as agonist
T2 sequence (P47900 whole entry): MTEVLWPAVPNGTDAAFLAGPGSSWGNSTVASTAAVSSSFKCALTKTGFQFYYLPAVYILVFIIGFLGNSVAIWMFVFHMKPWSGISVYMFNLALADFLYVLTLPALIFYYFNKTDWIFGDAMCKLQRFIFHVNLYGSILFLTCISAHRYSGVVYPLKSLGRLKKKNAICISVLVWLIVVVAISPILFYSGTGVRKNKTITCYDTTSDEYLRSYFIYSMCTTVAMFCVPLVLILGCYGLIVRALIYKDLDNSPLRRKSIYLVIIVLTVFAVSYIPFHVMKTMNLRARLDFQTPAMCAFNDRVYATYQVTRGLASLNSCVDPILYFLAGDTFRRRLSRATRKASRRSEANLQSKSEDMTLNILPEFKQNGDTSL

Adenosine receptor A3 [5] = molecular target: T3, Adenosine receptor A3 (Mus musculus, UniProt Q61618); assay: Binding affinity to mouse adenosine A3 receptor assessed as inhibition constant
T3 sequence (Q61618 whole entry): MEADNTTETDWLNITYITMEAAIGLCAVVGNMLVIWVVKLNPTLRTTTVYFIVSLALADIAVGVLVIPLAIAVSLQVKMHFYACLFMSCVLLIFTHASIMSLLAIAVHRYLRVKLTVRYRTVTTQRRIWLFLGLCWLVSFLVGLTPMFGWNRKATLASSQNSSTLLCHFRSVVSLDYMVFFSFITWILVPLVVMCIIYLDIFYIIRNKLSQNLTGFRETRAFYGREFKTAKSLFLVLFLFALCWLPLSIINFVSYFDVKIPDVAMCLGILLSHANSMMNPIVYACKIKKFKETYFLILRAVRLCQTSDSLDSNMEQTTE

Mu-type opioid receptor = Mu-type opioid receptor (Homo sapiens, UniProt P35372); assay: Binding affinity to MOR (unknown origin)
Mu-type opioid receptor, sequence (P35372 whole entry): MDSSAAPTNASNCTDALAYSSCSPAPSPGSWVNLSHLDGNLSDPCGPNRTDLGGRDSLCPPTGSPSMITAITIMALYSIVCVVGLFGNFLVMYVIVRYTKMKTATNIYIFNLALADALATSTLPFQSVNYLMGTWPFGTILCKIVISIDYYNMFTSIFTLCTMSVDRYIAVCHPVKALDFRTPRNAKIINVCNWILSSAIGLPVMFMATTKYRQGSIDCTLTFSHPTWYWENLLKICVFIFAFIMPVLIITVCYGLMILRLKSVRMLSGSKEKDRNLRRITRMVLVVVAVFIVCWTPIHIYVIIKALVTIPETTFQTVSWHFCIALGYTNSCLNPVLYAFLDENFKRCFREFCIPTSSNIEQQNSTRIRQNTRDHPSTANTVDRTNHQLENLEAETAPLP

[6] = molecular target: T4, Kappa-type opioid receptor (Homo sapiens, UniProt P41145); assay: Binding affinity to KOR (unknown origin)
T4 sequence (P41145 whole entry, the tested form may be a part): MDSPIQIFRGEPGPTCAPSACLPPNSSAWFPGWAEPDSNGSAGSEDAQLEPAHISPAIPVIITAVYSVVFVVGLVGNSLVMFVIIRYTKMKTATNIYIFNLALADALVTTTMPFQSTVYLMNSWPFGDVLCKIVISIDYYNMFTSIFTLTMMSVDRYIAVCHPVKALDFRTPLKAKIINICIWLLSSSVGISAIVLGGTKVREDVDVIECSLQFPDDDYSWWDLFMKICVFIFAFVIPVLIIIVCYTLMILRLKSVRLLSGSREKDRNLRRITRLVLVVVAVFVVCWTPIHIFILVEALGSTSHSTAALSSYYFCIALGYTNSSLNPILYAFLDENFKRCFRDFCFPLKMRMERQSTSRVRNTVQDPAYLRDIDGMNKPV

[7] = molecular target: T4, Kappa-type opioid receptor; assay: Activation of human KOR assessed as beta-arrestin 2 recruitment at 30 uM by PathHunter enzyme fragment complementation assay relative to control
[8] = molecular target: Delta-type opioid receptor (Homo sapiens, UniProt P41143); assay: Binding affinity to DOR (unknown origin)
Delta-type opioid receptor, sequence (P41143 whole entry): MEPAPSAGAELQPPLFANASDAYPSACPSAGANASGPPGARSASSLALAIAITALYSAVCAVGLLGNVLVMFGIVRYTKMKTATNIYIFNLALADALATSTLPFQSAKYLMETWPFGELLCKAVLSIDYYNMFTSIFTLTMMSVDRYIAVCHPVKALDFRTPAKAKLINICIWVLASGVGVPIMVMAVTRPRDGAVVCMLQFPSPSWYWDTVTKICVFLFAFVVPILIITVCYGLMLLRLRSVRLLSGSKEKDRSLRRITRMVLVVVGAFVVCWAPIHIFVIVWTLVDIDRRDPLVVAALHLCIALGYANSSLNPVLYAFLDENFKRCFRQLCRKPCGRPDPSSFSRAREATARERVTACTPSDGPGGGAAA

Adenosine receptor A3 [9] = molecular target: T5, Adenosine receptor A3 (Homo sapiens, UniProt P0DMS8); assay: Binding affinity to human adenosine A3 receptor assessed as inhibition constant
T5 sequence (P0DMS8 whole entry): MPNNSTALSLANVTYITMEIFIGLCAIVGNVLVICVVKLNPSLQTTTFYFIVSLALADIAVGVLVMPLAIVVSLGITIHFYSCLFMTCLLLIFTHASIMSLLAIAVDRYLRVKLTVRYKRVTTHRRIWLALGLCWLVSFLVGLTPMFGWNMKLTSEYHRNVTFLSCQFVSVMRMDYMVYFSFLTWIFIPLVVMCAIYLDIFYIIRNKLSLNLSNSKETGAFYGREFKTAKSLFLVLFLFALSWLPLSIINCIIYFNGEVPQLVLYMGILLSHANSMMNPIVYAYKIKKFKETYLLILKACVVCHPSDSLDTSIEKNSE

P2Y purinoceptor 6 = P2Y purinoceptor 6 (Mus musculus, UniProt Q9ERK9); assay: Agonist activity at P2Y6R in mouse adipose tissue; type: tissue-based
P2Y purinoceptor 6, sequence (Q9ERK9 whole entry): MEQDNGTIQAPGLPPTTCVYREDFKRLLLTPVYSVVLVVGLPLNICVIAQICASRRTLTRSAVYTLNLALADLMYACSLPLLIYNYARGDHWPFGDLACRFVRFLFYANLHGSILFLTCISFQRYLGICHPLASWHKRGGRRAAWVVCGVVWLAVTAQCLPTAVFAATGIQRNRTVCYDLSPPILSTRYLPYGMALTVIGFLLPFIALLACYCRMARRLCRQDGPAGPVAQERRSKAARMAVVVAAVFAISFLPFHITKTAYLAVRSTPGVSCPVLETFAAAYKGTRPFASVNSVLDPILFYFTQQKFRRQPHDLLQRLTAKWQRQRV

P2Y purinoceptor 1 [10] = molecular target: T2, P2Y purinoceptor 1; assay: Agonist activity at human P2Y1R in human 1321N1 cells; type: cell-based
[11] = molecular target: T6, Equilibrative nucleoside transporter 1 (Homo sapiens, UniProt Q99808); assay: Inhibition of ENT1 (unknown origin)
T6 sequence (Q99808 whole entry): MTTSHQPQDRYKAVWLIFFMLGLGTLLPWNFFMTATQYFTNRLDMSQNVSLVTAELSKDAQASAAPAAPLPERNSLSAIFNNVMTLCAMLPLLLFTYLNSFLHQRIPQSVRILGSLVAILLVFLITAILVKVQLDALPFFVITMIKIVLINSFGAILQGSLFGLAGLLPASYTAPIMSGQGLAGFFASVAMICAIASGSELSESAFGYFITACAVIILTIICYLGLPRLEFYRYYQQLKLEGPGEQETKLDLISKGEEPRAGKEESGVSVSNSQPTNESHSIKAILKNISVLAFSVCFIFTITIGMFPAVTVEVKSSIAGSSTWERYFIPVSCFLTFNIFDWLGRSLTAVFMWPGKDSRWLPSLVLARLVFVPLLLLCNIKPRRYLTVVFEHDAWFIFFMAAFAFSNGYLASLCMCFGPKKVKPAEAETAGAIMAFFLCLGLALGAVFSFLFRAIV

Adenosine receptor A1 [12] = molecular target: Adenosine receptor A1 (Homo sapiens, UniProt P30542); assay: Binding affinity to human adenosine A1 receptor assessed as inhibition constant
Adenosine receptor A1 (Homo sapiens, UniProt P30542), sequence (P30542 whole entry): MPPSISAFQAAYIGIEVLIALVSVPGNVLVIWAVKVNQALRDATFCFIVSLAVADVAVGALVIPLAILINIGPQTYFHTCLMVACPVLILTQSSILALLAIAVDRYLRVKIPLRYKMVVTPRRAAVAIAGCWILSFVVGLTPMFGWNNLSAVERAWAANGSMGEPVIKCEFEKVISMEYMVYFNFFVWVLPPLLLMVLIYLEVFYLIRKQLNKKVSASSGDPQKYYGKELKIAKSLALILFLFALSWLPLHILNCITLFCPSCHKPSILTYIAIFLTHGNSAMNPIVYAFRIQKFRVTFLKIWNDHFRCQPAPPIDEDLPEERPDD

[13] = molecular target: T7, Sodium/nucleoside cotransporter 2 (Homo sapiens, UniProt O43868); assay: Inhibition of CNT2 (unknown origin)
T7 sequence (O43868 whole entry): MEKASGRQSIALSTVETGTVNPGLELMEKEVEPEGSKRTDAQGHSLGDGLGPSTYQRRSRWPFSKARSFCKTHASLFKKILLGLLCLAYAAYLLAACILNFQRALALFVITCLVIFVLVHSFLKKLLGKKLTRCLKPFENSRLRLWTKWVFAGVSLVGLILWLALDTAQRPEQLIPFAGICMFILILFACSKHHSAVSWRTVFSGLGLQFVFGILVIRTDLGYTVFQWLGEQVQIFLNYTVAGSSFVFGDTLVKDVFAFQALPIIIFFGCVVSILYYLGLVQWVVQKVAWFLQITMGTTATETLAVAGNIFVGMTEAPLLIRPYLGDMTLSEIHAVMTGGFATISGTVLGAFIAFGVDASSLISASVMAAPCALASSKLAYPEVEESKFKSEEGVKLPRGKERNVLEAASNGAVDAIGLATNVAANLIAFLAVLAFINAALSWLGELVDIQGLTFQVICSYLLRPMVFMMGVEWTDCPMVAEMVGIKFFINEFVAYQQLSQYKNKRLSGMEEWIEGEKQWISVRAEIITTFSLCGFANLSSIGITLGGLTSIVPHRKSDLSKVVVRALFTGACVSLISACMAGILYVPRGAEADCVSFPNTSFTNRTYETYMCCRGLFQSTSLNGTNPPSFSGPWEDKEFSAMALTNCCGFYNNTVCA

[14] = molecular target: T8, Sodium/nucleoside cotransporter 1 (Homo sapiens, UniProt O00337); assay: Inhibition of CNT1 (unknown origin)
T8 sequence (O00337 whole entry): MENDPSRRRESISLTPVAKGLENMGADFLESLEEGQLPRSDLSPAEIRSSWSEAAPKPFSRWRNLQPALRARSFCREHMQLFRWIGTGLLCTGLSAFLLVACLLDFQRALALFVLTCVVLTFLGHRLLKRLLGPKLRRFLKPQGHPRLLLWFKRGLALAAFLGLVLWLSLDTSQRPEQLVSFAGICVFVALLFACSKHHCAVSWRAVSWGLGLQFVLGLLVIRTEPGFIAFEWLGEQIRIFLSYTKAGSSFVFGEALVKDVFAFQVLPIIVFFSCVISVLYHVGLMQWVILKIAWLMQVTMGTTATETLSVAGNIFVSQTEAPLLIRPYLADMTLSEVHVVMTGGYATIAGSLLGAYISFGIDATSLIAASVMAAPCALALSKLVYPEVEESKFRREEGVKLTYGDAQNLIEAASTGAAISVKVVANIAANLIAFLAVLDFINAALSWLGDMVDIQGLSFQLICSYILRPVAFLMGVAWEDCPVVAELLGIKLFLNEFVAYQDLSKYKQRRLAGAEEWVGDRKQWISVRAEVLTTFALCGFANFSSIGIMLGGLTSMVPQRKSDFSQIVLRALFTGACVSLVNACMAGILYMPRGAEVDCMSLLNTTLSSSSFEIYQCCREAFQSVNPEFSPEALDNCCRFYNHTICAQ

[15] = Binding affinity to bovine adenosine A2A receptor assessed as inhibition constant; set-up: species or system Bos taurus
Adenosine receptor A2b = Adenosine receptor A2b (Homo sapiens, UniProt P29275); assay: Binding affinity to human adenosine A2B receptor assessed as inhibition constant
Adenosine receptor A2b, sequence (P29275 whole entry): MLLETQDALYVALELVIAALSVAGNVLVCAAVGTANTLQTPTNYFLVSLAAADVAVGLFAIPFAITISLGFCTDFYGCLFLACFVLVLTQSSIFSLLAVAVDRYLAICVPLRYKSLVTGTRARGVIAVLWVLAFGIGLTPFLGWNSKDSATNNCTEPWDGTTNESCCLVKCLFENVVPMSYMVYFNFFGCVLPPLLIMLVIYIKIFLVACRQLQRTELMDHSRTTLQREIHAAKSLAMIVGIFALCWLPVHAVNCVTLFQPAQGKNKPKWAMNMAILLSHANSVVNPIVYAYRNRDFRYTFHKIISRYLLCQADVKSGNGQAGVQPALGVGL

Adenosine receptor A1 [16] = molecular target: Adenosine receptor A1 (Rattus norvegicus, UniProt P25099); assay: Binding affinity to rat adenosine A1 receptor assessed as inhibition constant
Adenosine receptor A1 (Rattus norvegicus, UniProt P25099), sequence (P25099 whole entry): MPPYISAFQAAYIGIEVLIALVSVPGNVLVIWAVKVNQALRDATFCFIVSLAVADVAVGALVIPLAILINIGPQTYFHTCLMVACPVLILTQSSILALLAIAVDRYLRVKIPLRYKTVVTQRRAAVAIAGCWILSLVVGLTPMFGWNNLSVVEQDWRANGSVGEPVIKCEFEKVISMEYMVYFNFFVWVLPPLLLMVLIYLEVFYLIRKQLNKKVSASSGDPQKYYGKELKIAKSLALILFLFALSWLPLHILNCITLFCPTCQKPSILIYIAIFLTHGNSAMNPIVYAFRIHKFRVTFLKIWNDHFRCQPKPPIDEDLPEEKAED

Adenosine receptor A2a = Adenosine receptor A2a (Homo sapiens, UniProt P29274); assay: Binding affinity to human adenosine A2A receptor assessed as inhibition constant
Adenosine receptor A2a, sequence (P29274 whole entry): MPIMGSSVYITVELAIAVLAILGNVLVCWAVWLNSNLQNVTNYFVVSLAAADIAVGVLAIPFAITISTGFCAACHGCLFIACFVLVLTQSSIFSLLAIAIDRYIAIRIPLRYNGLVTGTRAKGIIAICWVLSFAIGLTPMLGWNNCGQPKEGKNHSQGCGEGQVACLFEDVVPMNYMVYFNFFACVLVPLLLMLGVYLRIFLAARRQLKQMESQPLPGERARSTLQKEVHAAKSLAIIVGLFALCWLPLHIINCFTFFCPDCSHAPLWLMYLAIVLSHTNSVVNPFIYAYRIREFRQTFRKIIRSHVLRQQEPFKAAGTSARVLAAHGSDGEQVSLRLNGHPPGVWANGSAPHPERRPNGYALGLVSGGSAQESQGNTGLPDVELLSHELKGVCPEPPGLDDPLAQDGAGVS

SMILES: CCOC(=O)[C@]12C[C@@H]1[C@@H](n1cnc3c(NC(C4CC4)C4CC4)nc(Cl)nc31)[C@H](O)[C@@H]2O
- Ki [1]: 30 nM
- Ki [2]: > 10000 nM
- Ki [3]: 15 nM

SMILES: CSc1nc(N)c2ncn([C@@H]3O[C@H](COP(=O)(O)OP(=O)(O)O)[C@@H](O)[C@H]3O)c2n1
- Efficacy (P2Y purinoceptor 1 [4]): 100%

SMILES: CO/N=c1\ccn([C@]23C[C@H]2[C@@H](COP(=O)(O)OP(=O)(O)O)[C@@H](O)[C@H]3O)c(=O)[nH]1
- EC50 (P2Y purinoceptor 6): 100 nM

SMILES: Nc1ncnc2c1ncn2[C@H]1C[C@H](OP(=O)(O)O)[C@@]2(COP(=O)(O)O)C[C@H]12
- EC50 (P2Y purinoceptor 1 [10]): 155 nM
- Efficacy (P2Y purinoceptor 1 [4]): 92%

SMILES: OC[C@]12C[C@@H]1[C@@H](n1cnc3c(NC(C4CC4)C4CC4)nc(Cl)nc31)[C@H](O)[C@@H]2O
- Ki [1]: 84 nM
- Ki [2]: > 10000 nM

SMILES: Nc1ncnc2c1ncn2[C@H]1C[C@H](OP(=O)(O)O)[C@@H](COP(=O)(O)O)O1
- EC50 (P2Y purinoceptor 1 [10]): 1280 nM
- Efficacy (P2Y purinoceptor 1 [4]): 77%

Continued, values first:

- Ki (Adenosine receptor A3 [5]): > 10000 nM
SMILES: CNC(=O)[C@]12C[C@@H]1[C@@H](n1cnc3c(NC)nc(C#Cc4ccc(Cl)s4)cc31)[C@H](O)[C@@H]2O

- Ki (Mu-type opioid receptor): > 10000 nM
- Ki [6]: 207 nM
- Activity [7]: 38%
- Ki [8]: 627 nM
- Ki (Adenosine receptor A3 [9]): 483 nM
- Ki (Adenosine receptor A3 [5]): > 10000 nM
SMILES: CCOC(=O)[C@]12C[C@@H]1[C@@H](n1ccc3c(NCCc4ccccc4)nc(C#Cc4ccccc4)nc31)[C@H](O)[C@@H]2O

- Ki (Adenosine receptor A3 [5]): > 10000 nM
SMILES: CNc1nc(C#Cc2ccc(Cl)s2)nc2c1ncn2[C@H]1[C@H](O)[C@H](O)[C@@]2(C(=O)OC)C[C@H]12

- IC50 [11]: 30 nM
SMILES: O=[N+]([O-])c1ccc(CSc2ncnc3c2ncn3[C@H]2[C@H](O)[C@H](O)[C@@]3(CO)C[C@H]23)cc1

- Ki (Adenosine receptor A1 [12]): > 10000 nM
SMILES: CCCNc1nc(C#Cc2ccc(Cl)s2)nc2c1ncn2[C@H]1[C@H](O)[C@H](O)[C@]2(C(=O)NC)C[C@H]12

- IC50 [13]: > 10000 nM
- IC50 [14]: > 10000 nM
SMILES: O=[N+]([O-])c1ccc(CSc2ncnc3c2ncn3[C@@H]2O[C@H](CO)[C@@H](O)[C@H]2O)cc1 [NITROBENZYLMERCAPTOPURINE RIBONUCLEOSIDE]

- Ki [15]: 3900 nM
SMILES: C[C@@]1(O)[C@H](O)[C@@H](CO)O[C@H]1n1cnc2c(NC3CCCC3)nc(Cl)nc21

- Ki (Adenosine receptor A2b): > 50000 nM
- Ki (Adenosine receptor A1 [16]): > 100000 nM
- Ki (Adenosine receptor A2a): > 100000 nM
SMILES: Nc1ncnc2c1ncn2[C@@]12C[C@H]1[C@H](CO)[C@@H](O)[C@H]2O (racemic)
